Assay results from PubChem BioAssay (NCI).
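Five concentrations, 48 hours, 96-well plates. TGI: concentration producing complete growth inhibition.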

Legend:
Assay in all cases: NCI-60 cell line screen, 48 h
SR leukemia = test system: SR leukemia
U251 CNS = test system: U251 CNS
SK-MEL-2 melanoma = test system: SK-MEL-2 melanoma
SNB-75 CNS = test system: SNB-75 CNS
KM12 colon = test system: KM12 colon
HCT-116 colon = test system: HCT-116 colon
A498 renal = test system: A498 renal
MCF7 breast = test system: MCF7 breast
K-562 leukemia = test system: K-562 leukemia
HOP-62 NSCLC = test system: HOP-62 NSCLC
SF-539 CNS = test system: SF-539 CNS
HS 578T breast = test system: HS 578T breast
SN12C renal = test system: SN12C renal
PC-3 prostate = test system: PC-3 prostate
UO-31 renal = test system: UO-31 renal
T-47D breast = test system: T-47D breast
786-0 renal = test system: 786-0 renal
CAKI-1 renal = test system: CAKI-1 renal
HL-60(TB) leukemia = test system: HL-60(TB) leukemia
NCI-H460 lung = test system: NCI-H460 lung
SNB-19 CNS = test system: SNB-19 CNS
RXF 393 renal = test system: RXF 393 renal
SK-OV-3 ovarian = test system: SK-OV-3 ovarian
DU-145 prostate = test system: DU-145 prostate
MOLT-4 leukemia = test system: MOLT-4 leukemia
CCRF-CEM leukemia = test system: CCRF-CEM leukemia
MDA-MB-435 = test system: MDA-MB-435
OVCAR-4 ovarian = test system: OVCAR-4 ovarian
SW-620 colon = test system: SW-620 colon
LOX IMVI melanoma = test system: LOX IMVI melanoma
SK-MEL-28 melanoma = test system: SK-MEL-28 melanoma
OVCAR-8 ovarian = test system: OVCAR-8 ovarian
MALME-3M melanoma = test system: MALME-3M melanoma
A549 NSCLC = test system: A549 NSCLC
EKVX NSCLC = test system: EKVX NSCLC
M14 melanoma = test system: M14 melanoma
UACC-62 melanoma = test system: UACC-62 melanoma
HT29 colon = test system: HT29 colon
MDA-N = test system: MDA-N
HCT-15 colon = test system: HCT-15 colon
SK-MEL-5 melanoma = test system: SK-MEL-5 melanoma
ACHN renal = test system: ACHN renal
IGROV1 ovarian = test system: IGROV1 ovarian
NCI-H522 lung = test system: NCI-H522 lung
BT-549 breast = test system: BT-549 breast
HOP-92 NSCLC = test system: HOP-92 NSCLC
NCI/ADR-RES ovarian = test system: NCI/ADR-RES ovarian
RPMI-8226 leukemia = test system: RPMI-8226 leukemia
HCC-2998 colon = test system: HCC-2998 colon
UACC-257 melanoma = test system: UACC-257 melanoma
TK-10 renal = test system: TK-10 renal
MDA-MB-231 breast = test system: MDA-MB-231 breast
OVCAR-3 ovarian = test system: OVCAR-3 ovarian
NCI-H23 lung = test system: NCI-H23 lung
SF-295 CNS = test system: SF-295 CNS
COLO 205 colon = test system: COLO 205 colon
OVCAR-5 ovarian = test system: OVCAR-5 ovarian
SF-268 CNS = test system: SF-268 CNS
NCI-H226 lung = test system: NCI-H226 lung

Measured: TGI

CN1CN(c2ccccc2)C2(CCNCC2)C1=O
> 100 µM: all assays above

C=C1CC(OC(C)=O)/C=C(/C)CCC(C(C)(C)O)CC1O (stereo unspecified)
not listed: SNB-75 CNS | K-562 leukemia | RPMI-8226 leukemia
> 100 µM: all other assays above

COc1ccc2c(c1)/C(=C(\C(Cl)=C(\Cl)N1CCCCC1)[N+](=O)[O-])N2
not listed: SK-MEL-2 melanoma | SF-539 CNS | RPMI-8226 leukemia
> 100 µM: all other assays above
